Results: patent US8530491B2, “Antimalarial compounds with flexible side-chains” (Medicines for Malaria Venture (MMV), priority 2007, dated 2013)
Values after ≈ are worked out from the molar mass of the structure shown. Where two headings read alike, the source gives them in different places.

Tests used:
[1] = system: P. falciparum TM4/8.2 (wild type); test: In vitro anti-plasmodial activity, [3H]-hypoxanthine incorporation; type: cell-based, Plasmodium falciparum
P. chabaudi AS [2] = test: Standard 4-day Peters' test against P. chabaudi AS in mice; type: in vivo, Plasmodium chabaudi; details: for ED50 / ED90: Plasmodium chabaudi, 96 h, oral, 4-day Peters' test; for ED50: 50% reduction in parasitaemia; for ED90: 90% reduction in parasitaemia; for ED90 P. chabaudi AS, oral: oral administration, mice (Table 1)
Protocol: (§1) Briefly, 20 gr CD1 male mice (Charles Rivers, UK) were kept in specific pathogen-free conditions and fed ad libitum. For oral administration, compounds were dissolved in standard suspending formula (SSV) [0.5% sodium carboxymethylcellulose, 0.5% benzyl alcohol, 0.4% Tween 80, 0.9% NaCl (all Sigma)] and for intraperitoneal or subcutaneous administration compounds were dissolved in 0.5% w/v hydroxypropylmethylcellulose, 0.4% v/v Tween 80, 0.5% V/v benzyl alcohol in de-ionised water]. Mice were infected intravenously with 4×10^6 infected red cells and treated orally (p.o.) with 0.2 ml of a solution of the test compounds two hours (day 0) and on days 1, 2 and 3 post-infection. Parasitaemia was determined by microscopic examination of Giemsa stained blood films taken on day 4. Microscopic counts of blood films from each mouse were processed using GraphPad Prism 4 (GraphPad Software, Inc., CA, USA) and expressed as percentages of inhibition from the arithmetic mean parasitaemias of each group in relation to the untreated group. Compounds were tested in an initial screening at 30 mg/kg/day against P. chabaudi AS (non-resistant) over the period described and percentages of inhibition calculated in relation to the untreated controls. Compounds giving 80% inhibition or above were then tested in the same model under a range of doses over the period described in order to obtain dose response curves and calculate their ED50 and ED90 values. […] From the ED90 values is clear that a number of compounds have exquisite activity in this model and are also tested in P. chabaudi ASP and P. berghei ANKA.

S. aureus = test: Antibacterial activity, minimal inhibitory concentration on agar plates; type: cell-based; details: Staphylococcus aureus; complete inhibition of growth on agar plates
E. coli = test: as above; type: cell-based; details: Escherichia coli; complete inhibition of growth on agar plates
Pf DHFR WT = molecular target: T1, Pf DHFR WT (Plasmodium falciparum, UniProt A7UD81); test: Pf DHFR enzyme inhibition (Ki), wild type; type: biochemical
T1 construct: made in house; host or cells: E. coli BL21(DE3)pLysS
T1 sequence (A7UD81 1-608): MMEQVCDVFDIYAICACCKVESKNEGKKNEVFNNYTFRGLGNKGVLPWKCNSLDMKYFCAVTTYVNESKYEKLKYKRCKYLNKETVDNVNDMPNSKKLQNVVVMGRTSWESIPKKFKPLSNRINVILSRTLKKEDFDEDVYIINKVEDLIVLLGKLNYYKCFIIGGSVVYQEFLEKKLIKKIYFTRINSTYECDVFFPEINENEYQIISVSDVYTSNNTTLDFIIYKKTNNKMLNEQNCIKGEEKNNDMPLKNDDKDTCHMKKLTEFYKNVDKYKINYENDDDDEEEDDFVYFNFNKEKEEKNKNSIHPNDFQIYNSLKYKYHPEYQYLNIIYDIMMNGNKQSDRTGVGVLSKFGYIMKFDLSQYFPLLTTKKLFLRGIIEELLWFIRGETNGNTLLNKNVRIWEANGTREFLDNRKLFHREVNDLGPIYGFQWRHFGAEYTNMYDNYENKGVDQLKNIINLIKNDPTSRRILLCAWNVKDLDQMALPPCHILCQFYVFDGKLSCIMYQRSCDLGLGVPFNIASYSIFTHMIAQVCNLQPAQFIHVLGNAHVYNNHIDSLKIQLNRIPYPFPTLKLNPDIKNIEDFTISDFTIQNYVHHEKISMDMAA

[3] = molecular target: T2, Pf DHFR N51I + C59R + S108N + I164L (Plasmodium falciparum, UniProt A7UD81, C59R/I164L/N51I/S108N); test: biochemical
T2 construct: made in house; host or cells: E. coli BL21(DE3)pLysS
T2 sequence (A7UD81 whole entry N51I/C59R/S108N/I164L): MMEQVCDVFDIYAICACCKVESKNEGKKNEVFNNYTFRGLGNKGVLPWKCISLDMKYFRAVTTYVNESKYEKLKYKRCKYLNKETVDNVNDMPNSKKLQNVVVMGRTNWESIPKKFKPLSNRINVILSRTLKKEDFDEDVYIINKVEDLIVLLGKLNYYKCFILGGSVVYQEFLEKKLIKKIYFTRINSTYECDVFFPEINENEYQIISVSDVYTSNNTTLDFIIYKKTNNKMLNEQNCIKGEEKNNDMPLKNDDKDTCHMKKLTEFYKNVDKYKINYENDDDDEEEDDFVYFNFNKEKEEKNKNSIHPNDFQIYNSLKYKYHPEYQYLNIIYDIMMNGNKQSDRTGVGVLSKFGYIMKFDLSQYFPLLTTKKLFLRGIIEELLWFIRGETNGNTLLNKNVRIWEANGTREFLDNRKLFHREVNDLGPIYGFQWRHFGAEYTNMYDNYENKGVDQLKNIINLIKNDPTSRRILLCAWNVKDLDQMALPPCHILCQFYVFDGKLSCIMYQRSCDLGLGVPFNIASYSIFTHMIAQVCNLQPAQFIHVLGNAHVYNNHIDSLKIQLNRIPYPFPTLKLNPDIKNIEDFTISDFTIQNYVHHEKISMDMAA

[4] = Cytotoxicity in mammalian cells; type: cell-based; details: African green monkey, Vero cells (African green monkey kidney epithelial cells)
[5] = Oral bioavailability and pharmacokinetics in male Sprague Dawley rats; type: in vivo; details: for Oral BA: i.v. and oral dosing; for Vd / clearance / half-life: rat, plasma; for Vd: intravenous; for clearance / half-life: iv, i.v. dosing; for clearance: read-out: i.v. CL(plasma); for half-life: read-out: i.v. t1/2 (converted)
Protocol: Rats had free access to water throughout the pre- and post-dose sampling period, and access to food was re-instated 4 hours post-dosing. Test compounds were administered intravenously as a 5 minute constant rate infusion (1.0 mL per rat) and orally by gavage (1.0 mL per rat). The IV formulations were typically buffered aqueous solutions containing a co-solvent if required for solubilization. The oral formulations were prepared as suspensions in hydroxypropylmethyl cellulose or carboxymethyl cellulose, each with the addition of Tween 80 and benzyl alcohol. Samples of arterial blood and total urine were collected up to 24 hours post-dose. Arterial blood was collected directly into borosilicate vials (at 4° C.) containing heparin, a protease inhibitor cocktail, potassium fluoride, and EDTA to minimise the potential for ex vivo degradation of the test compound in blood/plasma samples. Once collected, blood samples were centrifuged, supernatant plasma was removed and stored at −20° C., and plasma concentrations of test compound were determined by LCMS.

[6] = Pharmacokinetics of P218 / pro-drug P195 in male Swiss outbred mice; type: in vivo
Protocol: In a separate study, the oral bioavailability of P195, the ester pro-drug of P218 which contains a carboxylic acid side chain was investigated in mice. Male Swiss outbred mice were administered P218 (the free acid) intravenously by bolus tail vein injection at a nominal dose of 5 mg/kg and P195 (the ester pro-drug) orally by gavage at a nominal dose of 20 mg/kg. […] Blood sampling was conducted by cardiac puncture with a single sample per mouse, and two mice per time point over 16 hours post dosing. Blood samples were separated and plasma analyzed by LCMS as described above. The plasma concentration versus time profiles for P218 following IV administration of P218 and following oral administration of the pro-drug P195 are shown in FIG. 9. Plasma concentrations of P218 remained above the lower limit of quantitation (LLQ=0.0014 μM) for 7.5 h following IV administration.

P. falciparum Wild Type = test: Anti-malarial activity against P. falciparum in vitro, wild type (Table 1); type: cell-based, Plasmodium falciparum
[7] = system: P. falciparum Resistant mutant; test: Anti-malarial activity against P. falciparum in vitro, resistant mutant (Table 1); type: cell-based, Plasmodium falciparum; details: read-out: IC50 against P. falciparum in vitro, Resistant mutant
[8] = rat, in vivo
P. chabaudi AS [9] = test: Standard 4-day Peters' test against P. chabaudi AS in mice; type: in vivo, Plasmodium chabaudi; details: s.c. administration, mice (Table 1)
P. chabaudi ASP = test: Standard 4-day Peters' test against P. chabaudi ASP (pyrimethamine-resistant) in mice; type: in vivo, Plasmodium chabaudi
Protocol: as §1

P. berghei ANKA = test: Standard 4-day Peters' test against P. berghei ANKA in mice; type: in vivo, Plasmodium berghei; details: oral, lethal non-resistant strain
Protocol: as §1

[10] = Plasmodium falciparum, read-out: IC50-P. falciparum TM4/8.2 (WT), TM4/8.2

| SMILES | ED50 (P. chabaudi AS [2]) | ED90 (P. chabaudi AS [2]) | MIC (S. aureus) | MIC (E. coli) | Ki (Pf DHFR WT) | Ki [3] | IC50 [1, 10] | IC50 [4] | other results |
| --- | --- | --- | --- | --- | --- | --- | --- | --- | --- |
| CCN(CC)CCCC(C)Nc1ccnc2cc(Cl)ccc12 (centres unmarked) [Chloroquine, chloroquine, reference compound] | – | – | – | – | – | – | – | – | IC50 ([1]; Plasmodium falciparum, read-out: IC50-P. falciparum TM4/8.2 (WT)): 27 nM |
| CCc1nc(N)nc(N)c1OCCCOc1ccnc2ccc(F)cc12 [Compound P153, 2,4-diamino-6-ethyl-5-(3-(6-fluoro-quinolin-4-yloxy)propoxy)pyrimidine] | 0.006 mg/kg | 0.013 mg/kg | 10 to 50 µM (≈ 3.57 to 17.9 µg/mL) | 10 to 50 µM (≈ 3.57 to 17.9 µg/mL) | 1.41 ± 0.13 nM | 3.41 ± 0.27 nM | 0.25 ± 0.1 nM | 37 nM | Oral BA [5]: 26 % of dose; Vd [5]: 17.3 L/kg; clearance [5]: 69.6 mL/min/kg; half-life [5]: 15.7 h |
| CCc1nc(N)nc(N)c1OCCCOc1cc(C)nc2ccccc12 [Compound P154, 2,4-diamino-6-ethyl-5-(3-(2-methylquinolin-4-yloxy)propoxy)pyrimidine] | 0.006 mg/kg | 0.043 mg/kg | > 50 µM | 10 to 50 µM (≈ 3.53 to 17.7 µg/mL) | 1.29 ± 0.14 nM | 4.8 ± 0.36 nM | 2 ± 0.8 nM | 94 nM | Oral BA [5]: 9.3 % of dose; Vd [5]: 8.8 L/kg; clearance [5]: 84.1 mL/min/kg; half-life [5]: 3.2 h |
| CCc1nc(N)nc(N)c1OCCCOc1cc(C)nc2cc(F)ccc12 [Compound P157, 2,4-diamino-6-ethyl-5-(3-(7-fluoro-2-methylquinolin-4-yloxy)propoxy)pyrimidine] | 0.008 mg/kg | 0.012 mg/kg | > 25 µM | > 25 µM | 1.26 ± 0.24 nM | 3.95 ± 0.06 nM | 2.4 ± 0.7 nM | 100 nM | Oral BA [5]: 25.5 % of dose; Vd [5]: 15.2 L/kg; clearance [5]: 74.7 mL/min/kg; half-life [5]: 17.6 h |
| CCc1nc(N)nc(N)c1OCCCOc1cc(C)nc2ccc(OCCCC(=O)O)cc12 [Compound P169, 2,4-diamino-6-ethyl-5-(3-(6-(3-carboxypropoxy)-2-methylquinolin-4-yloxy)propoxy)pyrimidine] | > 29 mg/kg | > 29 mg/kg | – | – | 0.15 ± 0.04 nM | 0.36 ± 0.01 nM | 0.22 ± 0.06 nM | 420 nM | IC50 ([1]; read-out: IC50-P. falciparum TM4/8.2 (WT), TM4/8.2): 0.3 ± 0.1 nM |
| CCOC(=O)CCc1ccccc1OCCCOc1c(N)nc(N)nc1CC [Compound P195, 2,4-diamino-6-ethyl-5-(3-(2-(2-ethoxycarbonylethyl)phenoxy)propoxy)pyrimidine] | 0.21 mg/kg | 0.69 mg/kg | – | – | 0.26 ± 0.02 nM | 1.88 ± 0.13 nM | 2.5 ± 0.7 nM | 1250 nM | plasma concentrations of the pro-drug P195 ([6]; oral P195 20 mg/kg, all time points, below lower limit of quantitation): < 1.4 nM |
| CCOC(=O)CCCOc1ccccc1OCCCOc1c(N)nc(N)nc1CC [Compound P217, 2,4-diamino-6-ethyl-5-(3-(2-(3-ethoxycarbonylpropoxy)phenoxy)propoxy)pyrimidine] | < 0.63 mg/kg | < 0.63 mg/kg | – | – | 0.69 ± 0.1 nM | 3.3 ± 0.52 nM | 4 nM | 5330 nM | – |
| CCc1nc(N)nc(N)c1OCCCOc1ccccc1CCC(=O)O [Compound P218, 2,4-diamino-6-ethyl-5-(3-(2-(2-carboxyethyl)phenoxy)propoxy)pyrimidine] | < 0.63 mg/kg | < 0.63 mg/kg | – | – | 0.43 ± 0.07 nM | 0.54 ± 0.12 nM | 6 nM | > 10000 nM | time plasma concentration of P218 remained above LLQ following oral administration of ester prodrug ([6]; P195 oral 20 mg/kg, mice, LLQ=0.0014 μM): 16 h; time plasma concentrations of P218 remained above LLQ following IV administration ([6]; P218 IV 5 mg/kg, mice, LLQ=0.0014 μM): 7.5 h; bioavailability ([6]; male, Swiss outbred, mouse, plasma, oral, 20 mg/kg): ~50% |
| CCOC(=O)CCCOc1ccc2nc(C)cc(OCCCOc3c(N)nc(N)nc3CC)c2c1 [Compound P219, 2,4-diamino-6-ethyl-5-(3-(6-(3-ethoxycarbonylpropoxy)-2-methylquinolin-4-yloxy)propoxy)pyrimidine] | > 5 mg/kg | > 5 mg/kg | – | – | 0.52 ± 0.08 nM | 1.25 ± 0.22 nM | < 10 nM | – | – |
| CC1(C)N=C(N)N=C(N)N1c1ccc(Cl)cc1 [Cycloguanil, cycloguanil] | – | – | – | – | – | – | – | – | IC50 (P. falciparum Wild Type; Plasmodium falciparum): 37 nM; IC50 ([7]; Plasmodium falciparum): > 100000 nM; ED90 P. chabaudi AS, oral (P. chabaudi AS [2]): 6.2 mg/kg; Oral BA in rats [8]: 59.3%; ED90 P. chabaudi AS, s.c. (P. chabaudi AS [9]): 3.7 mg/kg |
| C[C@H]1[C@@H](O)O[C@@H]2O[C@@]3(C)CC[C@H]4[C@H](C)CC[C@@H]1[C@@]24OO3 [Dihydroartemisinin, reference compound] | – | – | – | – | – | – | – | – | IC50 ([1]; Plasmodium falciparum, read-out: IC50-P. falciparum TM4/8.2 (WT), TM4/8.2, listed as printed in nM): 1.69 ± 0.39 nM |
| CCc1nc(N)nc(N)c1-c1ccc(Cl)cc1 [Pyrimethamine, pyrimethamine, reference compound] | 0.25 mg/kg | 0.88 mg/kg | > 50 µM | > 50 µM | – | – | 58 ± 30 nM | – | IC50 (P. falciparum Wild Type; Plasmodium falciparum): 79 nM; IC50 ([7]; Plasmodium falciparum): > 100000 nM; ED90 P. chabaudi AS, oral (P. chabaudi AS [2]): 0.88 mg/kg; ED50 (P. chabaudi ASP; Plasmodium chabaudi, po, read-out: ED50 P. chabaudi ASP): 1.8 mg/kg; ED90 P. chabaudi ASP (P. chabaudi ASP; oral, pyrimethamine-resistant strain): 13.5 mg/kg; ED50 (P. berghei ANKA; Plasmodium berghei): 0.5 mg/kg; ED90 P. berghei ANKA (P. berghei ANKA): 3.2 mg/kg; Oral BA in rats [8]: ~100%; ED90 P. chabaudi AS, s.c. (P. chabaudi AS [9]): 0.25 mg/kg |
| COc1cc(Cc2cnc(N)nc2N)cc(OC)c1OC [Trimethoprim, trimethoprim, reference compound] | – | – | 1 to 10 µM (≈ 0.29 to 2.9 µg/mL) | 1 to 10 µM (≈ 0.29 to 2.9 µg/mL) | – | – | – | – | – |
| CC1(C)N=C(N)N=C(N)N1OCCCOc1cc(Cl)c(Cl)cc1Cl [WR99210] | – | – | – | – | – | – | – | – | IC50 (P. falciparum Wild Type; wild type): 0.6 nM; IC50 ([7]; resistant mutant): 18 nM; ED90 P. chabaudi AS, oral (P. chabaudi AS [2]): 74.2 mg/kg; Oral BA in rats [8]: <1%; ED90 P. chabaudi AS, s.c. (P. chabaudi AS [9]): 1.1 mg/kg |
